Data published in paper PMC4287998 (Phytochemistry letters, 2014).

Columns and labels:
[1] = test system: HT-29 human colon cancer cell line; assay: Cytotoxicity assay; format: cell-based; details: HT-29 cells, two days' incubation, SRB; ED50 > 20 µM considered inactive
[2] = test system: Leishmania mexicana promastigotes; assay: Promastigote assay, live/dead parasites by flow cytometry; format: cell-based; details: 48 h, read-out: L. mexicana promastigotes IC50
NF-κB (p65) = NF-κB (p65) (Homo sapiens, UniProt Q04206); assay: Enzyme-based ELISA NF-κB; format: biochemical
Sequence of NF-κB (p65) (Q04206 whole entry): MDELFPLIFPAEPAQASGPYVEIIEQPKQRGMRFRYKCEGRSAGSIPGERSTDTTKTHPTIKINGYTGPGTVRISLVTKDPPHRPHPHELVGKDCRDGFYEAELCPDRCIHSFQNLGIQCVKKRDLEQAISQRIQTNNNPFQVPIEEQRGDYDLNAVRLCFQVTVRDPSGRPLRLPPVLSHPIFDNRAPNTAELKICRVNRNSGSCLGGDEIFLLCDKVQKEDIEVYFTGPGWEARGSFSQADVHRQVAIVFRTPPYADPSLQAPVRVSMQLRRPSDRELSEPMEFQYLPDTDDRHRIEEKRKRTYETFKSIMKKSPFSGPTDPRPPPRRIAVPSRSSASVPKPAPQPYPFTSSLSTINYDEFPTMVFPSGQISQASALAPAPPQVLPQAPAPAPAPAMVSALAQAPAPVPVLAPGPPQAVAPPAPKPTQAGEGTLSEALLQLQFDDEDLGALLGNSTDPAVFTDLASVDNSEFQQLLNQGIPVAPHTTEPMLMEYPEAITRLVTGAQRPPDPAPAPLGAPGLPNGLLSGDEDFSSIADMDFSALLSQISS
Sequence of NF-κB (p65) (P19838 1-433 partner limits assumed): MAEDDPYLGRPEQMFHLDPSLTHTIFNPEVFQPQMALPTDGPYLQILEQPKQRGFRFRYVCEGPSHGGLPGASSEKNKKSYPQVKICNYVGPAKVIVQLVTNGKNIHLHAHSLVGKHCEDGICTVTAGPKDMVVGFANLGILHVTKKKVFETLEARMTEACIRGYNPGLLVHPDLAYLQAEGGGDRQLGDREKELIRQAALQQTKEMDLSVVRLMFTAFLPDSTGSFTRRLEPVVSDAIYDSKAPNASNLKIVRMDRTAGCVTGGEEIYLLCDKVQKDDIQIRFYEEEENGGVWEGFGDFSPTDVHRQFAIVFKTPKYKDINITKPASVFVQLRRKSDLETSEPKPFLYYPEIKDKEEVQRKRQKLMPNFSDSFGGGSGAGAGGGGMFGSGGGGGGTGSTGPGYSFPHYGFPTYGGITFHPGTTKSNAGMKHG

## 21-deoxy-N(4)-methyl-21-oxo-N(4),21-secotalpinine [Compound 2]
[1]
  HT-29 ED50: >20 µM

## C[C@@H]1[C@H](O)[C@@H](C)/C=C/C=C/C=C/C=C/C=C/C=C/C=C/[C@H](O[C@@H]2O[C@H](C)[C@@H](O)[C@H](N)[C@@H]2O)C[C@@H]2O[C@](O)(C[C@@H](O)C[C@@H](O)[C@H](O)CC[C@@H](O)C[C@@H](O)CC(=O)O[C@H]1C)C[C@H](O)[C@H]2C(=O)O [Amphotericin B, reference compound]
[2]
  IC50: 0.09 µM

## CC1=C(C=O)[C@@H]2C[C@H]3c4c(c5ccccc5n4C)C[C@@H]([C@@H]2CO1)N3C [Compound 3, alstonerinal]
[2]
  IC50: 105 µM
[1]
  HT-29 ED50: 8.6 µM
NF-κB (p65)
  IC50: > 20 µM

## CC(=O)C1=COC[C@@H]2[C@H]1C[C@H]1c3c(c4ccccc4n3C)C[C@@H]2N1C [Compound 4, alstonerine]
[2]
  IC50: 145 µM
[1]
  HT-29 ED50: >20 µM
NF-κB (p65)
  IC50: > 20 µM

## C[C@@H]1OC[C@@H]2[C@@H](C[C@H]3c4c(c5ccccc5n4C)C[C@@H]2N3C)[C@H]1CO [Compound 5, macrocarpine B]
[2]
  IC50: > 200 µM
NF-κB (p65)
  IC50: > 20 µM

## C/C=C1/CN2[C@H]3C[C@@H]1[C@@H](CO)[C@@H]2Cc1c3n(C)c2ccccc12 [Compound 6, affinisine]
[1]
  HT-29 ED50: >20 µM

## C/C=C1\CN2CCC34CC5C6CC7c8c(c9ccccc9n8C)CC(C6COC5(C)OC35C2CC1C(C(=O)OC)N5c1ccccc14)N7C (stereo not drawn) [Compound 7, villalstonine]
[1]
  HT-29 ED50: 8.0 µM

## C/C=C1/C[N+]2(C)CC[C@@]34C[C@H]5[C@@H]6C[C@H]7c8c(c9ccccc9n8C)C[C@@H]([C@@H]6CO[C@@]5(C)O[C@@]35[C@@H]2C[C@@H]1[C@@H](C(=O)OC)N5c1ccccc14)N7C.[Cl-] (stereo partly drawn) [Compound 10, villalstonidine E]
[1]
  HT-29 ED50: 6.5 µM

## CC(=O)O[C@H]1C(=O)[C@@]2(C)[C@H]([C@H](OC(=O)c3ccccc3)[C@]3(O)C[C@H](OC(=O)[C@H](O)[C@@H](NC(=O)c4ccccc4)c4ccccc4)C(C)=C1C3(C)C)[C@]1(OC(C)=O)CO[C@@H]1C[C@@H]2O [Paclitaxel, reference compound]
[1]
  HT-29 ED50: 0.006 µM

## COc1ccc([C@@]23Oc4cc(OC)cc(OC)c4[C@]2(O)[C@H](O)[C@H](C(=O)N(C)C)[C@H]3c2ccccc2)cc1 [Rocaglamide, reference compound]
[1]
  HT-29 ED50: 0.005 µM

## N(4)-methyltalpinine [Compound 1]
[1]
  HT-29 ED50: >20 µM

## villalstonidine D [Compound 9]
[1]
  HT-29 ED50: >20 µM

## villalstonine N(4)-oxide [Compound 8]
[1]
  HT-29 ED50: >20 µM
